Data as given in article PMC4666608, “Metabolic Profiling of Chicken Embryos Exposed to Perfluorooctanoic Acid (PFOA) and Agonists to Peroxisome Proliferator-Activated Receptors” (PLoS ONE, 2015).
Marks after values point to notes of the source that are not given here.

Test system: chicken embryos
Assay: Metabolic profiling of blood plasma (GC-MS, LC-MS, OPLS-DA)
Assay type: in vivo, Gallus gallus domesticus
Details: LC
Protocol: Controls were injected with 20 μL vehicle only (DMSO).
Plasma was collected and stored at -70°C.
Metabolites in allantoic fluid and blood plasma were analyzed using gas chromatography-mass spectrometry (GC-MS) and liquid chromatography-mass spectrometry (LC-MS) as described in S1 Methods. Prior to GC-MS and LC-MS analysis, allantoic fluid (100 μL) and blood plasma (50 μL) were extracted. To each sample, 900 μL (allantoic fluid) or 450 μL (blood plasma) of extraction buffer (90/10 v/v methanol:water) including all internal standards were added. Standards for GC-MS were proline, succinic acid, glutamic acid, salicylic acid, alpha-ketoglutarate, putrescine, myristic acid, hexadecanoic acid, cholesterol, and sucrose. Standards for LC-MS were Val-Tyr-Val, Leu-enkephalin, sulfadimethoxine and reserpine. Samples were homogenized by shaking in a bead mill at a frequency of 30 Hz for 3 minutes and proteins were precipitated at +4°C on ice. The samples were centrifuged at +4°C, 14000 rpm, for 10 min. Then, 200 μL supernatant was transferred to a GC microvial and 200 μL was transferred to an LC microvial, and solvents were evaporated. Samples from the four replicate experiments were analyzed using in chronological order and within each replicate experiment the run order of the individual samples was randomized.
Multivariate statistical analyses of metabolite profiles were performed using the software package SIMCA-P version 13.0 (Umetrics, Umeå, Sweden). Data was centered and scaled to variance 1 (UV scaling) prior to modelling. To reduce unintended systematic variation caused by sample processing and instrument drift, GC-MS and LC-MS metabolite amounts (expressed as the area under the chromatographic peak) were normalized by Orthogonal Partial Least Squares analysis (O2PLS) prior to multivariate data analysis. O2PLS finds common (predictive) and unique (orthogonal) variation in two data matrices. If applied to find the common variation between the data matrix containing the measured metabolite concentrations and a matrix containing only the internal standards, the only common (predictive) variation expected is due to the unintended systematic variation. By deleting the contribution of the predictive latent variables, that variation can be removed from the data. Models obtained after this normalization contain in general less latent variables, and this simplification helps when deciding on the number of latent variables to be used. Following normalization, GC-MS and LC-MS data were analyzed together. Initially, a global Principal Component Analysis (PCA) was performed to get an overview of groups and trends and to identify outliers. Projections to latent structures by means of Orthogonal Partial Least Squares Discriminant Analysis (OPLS-DA) was used to model the relationship between the X-matrix (metabolite concentrations) and the Y matrix (class, i.e. exposure group or sex), and to find x-variables that were related to class belonging. OPLS-DA is a supervised prediction and regression method that rotates the projection plane to find the maximum covariance between the data and the class assignment. All groups were first analyzed together in a 5-class OPLS-DA and then each exposure group was analyzed against the control group in a 2-class OPLS-DA. Sex differences were analyzed both using the whole data set and in each group separately using 2-class OPLS-DA, with females and males as the two classes. Only variables with 80% or more nonzero values were included in the statistical models. […] The validity of each model was also checked using CV-ANOVA (ANOVA of the cross-validated residuals). A significance level of p < 0.05 was used. For each model, R ^2 X, R ^2 Y and Q ^2 values were calculated, where R ^2 X is a measure of the fraction of x variation modeled in the extracted latent variables, R ^2 Y is a measure of the fraction of y variation modeled and Q ^2 is an estimate of the predictive ability of the model and is calculated by cross-validation. […]

O=C(O)C(F)(F)C(F)(F)C(F)(F)C(F)(F)C(F)(F)C(F)(F)C(F)(F)F [PFOA, perfluorooctanoic acid]
Mean concentration relative to control, feature 659.5483@11.4915495 (PFOA 50): 1.0
Mean concentration relative to control, feature 698.2598@1.3599721 (PFOA 50): 1.1
Mean concentration relative to control, feature 700.5514@10.765638 (PFOA 50): 1.1
Mean concentration relative to control, feature 755.5465@10.73882 (PFOA 50): 1
Mean concentration relative to control, feature 827.5078@8.831237 (PFOA 50): 1.2
Mean concentration relative to control, feature 875.4661@10.5661745 (PFOA 50): 1.0
Mean concentration relative to control, feature 1262.4865@1.947075 (PFOA 50): 1
Mean concentration relative to control, feature 1316.4163@1.9465046 (PFOA 50): 1.1*
Mean concentration relative to control, feature 1591.051@5.0189176 (PFOA 50): 1
Mean concentration relative to control, feature 1591.388@5.0202384 (PFOA 50): 1
Mean concentration relative to control, feature 1591.7203@5.018071 (PFOA 50): 1
Mean concentration relative to control, feature 118.0284@2.480333 (C4H6O4) (PFOA 250): 1
Mean concentration relative to control, feature 122.0486@0.675613 (PFOA 250): 1
Mean concentration relative to control, feature 126.0428@1.2278157 (Thymine) (PFOA 250): 1.1*
Mean concentration relative to control, feature 146.0362@0.7772238 (PFOA 250): 1
Mean concentration relative to control, feature 159.0686@1.1608156 (PFOA 250): 1.4
Mean concentration relative to control, feature 164.0449@0.7694838 (PFOA 250): 1
Mean concentration relative to control, feature 202.1024@5.0303197 (C8H14N2O4) (PFOA 250): 1.1
Mean concentration relative to control, feature 203.1162@0.5130696 (PFOA 250): 0.9
Mean concentration relative to control, feature 213.2458@7.4887733 (PFOA 250): 1.2**
Mean concentration relative to control, feature 215.047@1.6260729 (C5H14NO6P) (PFOA 250): 1.0
Mean concentration relative to control, feature 226.0721@1.9460537 (PFOA 250): 1
Mean concentration relative to control, feature 231.0174@1.6241412 (PFOA 250): 0.9
Mean concentration relative to control, feature 233.1265@2.535991 (PFOA 250): 1.1
Mean concentration relative to control, feature 250.1317@2.1334834 (PFOA 250): 0.9
Mean concentration relative to control, feature 260.0508@0.69984084 (PFOA 250): 0.7*
Mean concentration relative to control, feature 276.0173@1.6283482 (PFOA 250): 0.9
Mean concentration relative to control, feature 278.0939@1.3354088 (PFOA 250): 1
Mean concentration relative to control, feature 293.0903@1.5739433 (PFOA 250): 1
Mean concentration relative to control, feature 307.2147@7.5065937 (C18H29NO3) (PFOA 250): 2.0***
Mean concentration relative to control, feature 310.178@7.5343466 (PFOA 250): 1.2**
Mean concentration relative to control, feature 339.3861@9.528681 (PFOA 250): 1.4*
Mean concentration relative to control, feature 342.2883@7.526812 (PFOA 250): 0.7***
Mean concentration relative to control, feature 348.0675@1.5761927 (PFOA 250): 1
Mean concentration relative to control, feature 355.9454@0.68034226 (PFOA 250): 1
Mean concentration relative to control, feature 362.1467@0.8461036 (PFOA 250): 1.0
Mean concentration relative to control, feature 366.1431@1.4228548 (PFOA 250): 1
Mean concentration relative to control, feature 373.296@9.044806 (PFOA 250): 1.1
Mean concentration relative to control, feature 375.3108@8.995564 (PFOA 250): 1
Mean concentration relative to control, feature 389.2686@9.046645 (PFOA 250): 1
Mean concentration relative to control, feature 407.0999@1.585909 (PFOA 250): 1
Mean concentration relative to control, feature 412.135@2.4779084 (C17H24N4O6S) (PFOA 250): 1
Mean concentration relative to control, feature 444.3607@10.33052 (PFOA 250): 0.7*
Mean concentration relative to control, feature 471.9819@0.685074 (PFOA 250): 1.1
Mean concentration relative to control, feature 489.1508@8.562614 (PFOA 250): 0.8
Mean concentration relative to control, feature 509.1184@2.4798179 (PFOA 250): 1
Mean concentration relative to control, feature 525.2855@8.361063 (PFOA 250): 1
Mean concentration relative to control, feature 545.2492@8.463657 (PFOA 250): 1.1
Mean concentration relative to control, feature 558.4095@9.459733 (PFOA 250): 1
Mean concentration relative to control, feature 565.1902@0.7699907 (PFOA 250): 1.0
Mean concentration relative to control, feature 577.2747@9.25652 (PFOA 250): 1.1
Mean concentration relative to control, feature 581.1643@0.77029324 (PFOA 250): 1.1
Mean concentration relative to control, feature 634.2403@1.9467853 (PFOA 250): 1
Mean concentration relative to control, feature 644.1614@0.7647065 (PFOA 250): 1.1*
Mean concentration relative to control, feature 659.5483@11.4915495 (PFOA 250): 0.9
Mean concentration relative to control, feature 698.2598@1.3599721 (PFOA 250): 1.1
Mean concentration relative to control, feature 700.5514@10.765638 (PFOA 250): 1.1
Mean concentration relative to control, feature 755.5465@10.73882 (PFOA 250): 1.2
Mean concentration relative to control, feature 827.5078@8.831237 (PFOA 250): 1.2
Mean concentration relative to control, feature 875.4661@10.5661745 (PFOA 250): 1.0
Mean concentration relative to control, feature 1262.4865@1.947075 (PFOA 250): 1
Mean concentration relative to control, feature 1316.4163@1.9465046 (PFOA 250): 1.0
Mean concentration relative to control, feature 1591.051@5.0189176 (PFOA 250): 1
Mean concentration relative to control, feature 1591.388@5.0202384 (PFOA 250): 0.9
Mean concentration relative to control, feature 1591.7203@5.018071 (PFOA 250): 0.9
